Measurements taken from the supplement of paper PMC10307832.

Assays:
Test in all cases: relative viability (nuclei count vs DMSO), 5 days (fraction); higher = more cells survive
[1] = compound: NCC(=O)Nc1ccc(-n2nc(C(F)(F)F)cc2-c2ccc3c(ccc4ccccc43)c2)cc1 + COc1cccc2cc(-c3nc([C@H]4CC[C@H](C(=O)O)CC4)n4ncnc(N)c34)[nH]c12 [OSI-027] (partner 0.5 µM)
Procedure, shortened: (§1)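 Medians of duplicate plates are given as relative viability. That measure is the nuclei count in treated wells divided by the count in vehicle wells. Counts were taken on 4× images of lung cancer cell lines in 1536-well plates, 5 days after pin-tool dosing the day after seeding with one drug alone or a fixed anchor-drug dose plus five library-drug doses (not always all listed) in √10 steps.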

[2] = compound: C1CSC2=C(C(=O)N1)SC3=C2C=C(C=C3)O [kb NB 142-70] + Cc1nc(Nc2ncc(C(=O)Nc3c(C)cccc3Cl)s2)cc(N2CCN(CCO)CC2)n1 [Dasatinib] (partner 0.075 µM)
Procedure, shortened: as §1

[3] = compound: NCC(=O)Nc1ccc(-n2nc(C(F)(F)F)cc2-c2ccc3c(ccc4ccccc43)c2)cc1 + O=C(CCCCCCC(=O)Nc1ccccc1)NO [Vorinostat] (partner 1 µM)
Procedure, shortened: as §1

[4] = compound: NCC(=O)Nc1ccc(-n2nc(C(F)(F)F)cc2-c2ccc3c(ccc4ccccc43)c2)cc1 + Cc1nc(NC(=O)N2CCC[C@H]2C(N)=O)sc1-c1ccnc(C(C)(C)C(F)(F)F)c1 [Alpelisib] (partner 2 µM)
Procedure, shortened: as §1

Cell Line | relative viability ([1]; first compound 0.02 µM) | relative viability ([1]; first compound 0.06325 µM) | relative viability ([1]; first compound 0.2 µM) | relative viability ([1]; first compound 0.6325 µM) | relative viability ([1]; first compound 2 µM) | relative viability ([2]; first compound 0.1 µM) | relative viability ([2]; first compound 1 µM) | relative viability ([2]; first compound 3.162 µM) | relative viability ([3]; first compound 0.02 µM) | relative viability ([3]; first compound 0.06325 µM) | relative viability ([3]; first compound 0.2 µM) | relative viability ([3]; first compound 0.6325 µM) | relative viability ([3]; first compound 2 µM) | relative viability ([4]; first compound 0.02 µM) | relative viability ([4]; first compound 0.06325 µM) | relative viability ([4]; first compound 0.2 µM) | relative viability ([4]; first compound 0.6325 µM) | relative viability ([4]; first compound 2 µM)
NCI-H2342 | 0.666 | 0.726 | 0.635 | 0.539 | 0.648 | 0.349 | 0.311 | 0.255 | 0.871 | 0.817 | 0.663 | 0.864 | 0.743 |  |  |  |  | 
HCC-15 | 0.675 | 0.679 | 0.689 | 0.658 | 0.697 | 0.638 | 0.574 | 0.459 | 0.878 | 0.94 | 1.04 | 0.861 | 0.841 | 0.879 | 0.9 | 0.889 | 0.956 | 0.865
A-427 |  | 0.454 | 0.438 | 0.496 | 0.457 | 0.8 | 0.612 | 0.607 | 0.864 | 0.825 | 0.908 | 0.839 | 0.982 | 1.05 | 1.09 | 1.14 | 1.14 | 1.05
NCI-H2228 | 0.672 | 0.535 | 0.904 | 0.644 | 0.584 | 0.568 | 0.542 | 0.405 | 0.727 | 0.599 | 0.685 | 0.723 | 0.663 | 0.785 | 0.84 | 0.669 | 0.689 | 0.921
NCI-H1734 | 0.561 | 0.601 | 0.577 | 0.594 | 0.552 | 0.449 | 0.421 | 0.278 | 0.773 | 0.848 | 0.827 | 0.773 | 0.817 | 0.748 | 0.759 | 0.751 | 0.671 | 0.775
PC-14 | 0.769 | 0.949 | 0.937 | 0.82 | 0.726 | 0.299 | 0.239 | 0.224 | 0.685 | 0.62 |  | 0.659 | 0.657 | 1.04 | 0.952 | 1.02 | 0.889 | 1.04
NCI-H1915 | 0.463 | 0.652 | 0.639 | 0.617 | 0.63 | 0.323 | 0.339 | 0.248 | 0.525 | 0.555 | 0.56 | 0.497 | 0.552 | 1.08 | 1.08 | 1.13 | 1.02 | 1.04
NCI-H1666 | 0.932 | 0.836 | 0.945 | 0.845 | 0.861 | 0.849 | 0.808 | 0.732 | 1.03 | 1.07 | 1.13 | 0.938 | 0.944 | 1.07 | 0.869 | 0.852 | 0.937 | 1.09
HCC-366 | 0.829 | 1.08 | 1.09 | 0.848 | 0.816 | 0.634 | 0.498 | 0.378 | 0.254 | 0.423 | 0.419 | 0.357 | 0.435 | 0.32 | 0.432 | 0.489 | 0.435 | 0.322
